The values that follow come from BindingDB's records for doi:10.1021/jm0204441 (The Danish University of Pharmaceutical Sciences, 2003).

The nature of the test: Electrophysiological data on Xenopus oocytes, expressing homomeric kainate receptor (GluR5).

Consider `CC(C)(C)c1s[nH]c(=O)c1C[C@H](N)C(=O)O` [2-Amino-3-(5-tert-butyl-3-hydroxy-isothiazol-4-yl)-propionic acid], for which the EC50 is 100 nM.

As a reminder, the EC50 is the concentration needed to bring the measured effect to its halfway point. High values mean a need for much substance, low ones an effect from little substance.
